Assay results: US20130315843A1, “COMPOSITION FOR REDUCTION OF TRPA1 AND TRPV1 SENSATIONS” (priority 2012, published 2013)
Where a name gives a salt, the structure may show the parent alone. Read-outs that look alike come from different tables or passages of the source.

Columns and labels:
human TRPA1 = human TRPA1 (Homo sapiens, UniProt O75762); assay: FLIPR Ca2+ assay, reduction of L-Menthol activation of TRPA1
Protocol: In order to determine whether TRPA1 is activated, the intracellular calcium ion (Ca^2+) level from transfected cells with the TRPA1 receptor gene was measured. HEK-2 cells stably transfected with human TRPA1 were grown in 15 ml growth medium [high glucose DMEM (Dulbecco's Modification of Eagle's Medium) supplemented with 10% FBS (fetal bovine serum), 100 μg/ml Penicillin/streptomycin, 100 μg/ml G418] in a 75 Cm^2 flask for 3 days at 37° C. in a mammalian cell culture incubator set at 5% CO2. Cells were detached with addition of 10 ml of PBS (phosphate buffered saline) by hand shaking gently and transferred to a 50 ml tube and centrifuged at 850 rpm for 3 minutes to remove PBS. After centrifugation, a pellet of cells was formed in the bottom of the tube separating them from the supernatant solution. […] Fluo-4 is a fluorescent dye used for quantifying cellular Ca^2+ concentrations in the 100 nM to 1 μM range.
The pelleted cells were re-suspended in 10 ml assay buffer and 90 μl aliquots (˜50,000 cells) per well delivered to a 96-well assay plate containing 10 μl of test compounds (1 mM in assay buffer, final concentration 100 μM) or buffer control and incubated at room temperature for 30 minutes. After 30 minutes, the plate was placed into a fluorometric imaging plate reader (FLIPR384 from Molecular Devices) and basal fluorescence recorded (excitation wave length 488 nm and emission wave length 510 nm). Then 20 μl of the molecule being tested as a TRPA1 antagonist was added and fluorescence recorded. For determining the direct effect of test compounds on TRPA1, fluorescence was measured immediately after addition of each compound.
To determine if a compound was an antagonist or a desensitizer the direct effect of a test compound was determined. For determining the direct effect of test compounds on TRPA1 receptor activation, 100 μl aliquots (˜50,000 cells) of cells prepared as described above were delivered to a 96-well assay plate and basal fluorescence recorded as noted above. Then 20 μl of the compound being tested as a TRPA1 activator was added and fluorescence recorded. If any increase in fluorescence over background was noted, then the compound was considered an agonist.

human TRPV1 = human TRPV1 (Homo sapiens, UniProt Q8NER1); assay: FLIPR Ca2+ assay, reduction of L-Menthol activation of TRPV1; conditions: for inhibition at 100 µM: read-out: % Reduction of L-Menthol TRPV1 Activation
human TRPV1, sequence (Q8NER1 whole entry): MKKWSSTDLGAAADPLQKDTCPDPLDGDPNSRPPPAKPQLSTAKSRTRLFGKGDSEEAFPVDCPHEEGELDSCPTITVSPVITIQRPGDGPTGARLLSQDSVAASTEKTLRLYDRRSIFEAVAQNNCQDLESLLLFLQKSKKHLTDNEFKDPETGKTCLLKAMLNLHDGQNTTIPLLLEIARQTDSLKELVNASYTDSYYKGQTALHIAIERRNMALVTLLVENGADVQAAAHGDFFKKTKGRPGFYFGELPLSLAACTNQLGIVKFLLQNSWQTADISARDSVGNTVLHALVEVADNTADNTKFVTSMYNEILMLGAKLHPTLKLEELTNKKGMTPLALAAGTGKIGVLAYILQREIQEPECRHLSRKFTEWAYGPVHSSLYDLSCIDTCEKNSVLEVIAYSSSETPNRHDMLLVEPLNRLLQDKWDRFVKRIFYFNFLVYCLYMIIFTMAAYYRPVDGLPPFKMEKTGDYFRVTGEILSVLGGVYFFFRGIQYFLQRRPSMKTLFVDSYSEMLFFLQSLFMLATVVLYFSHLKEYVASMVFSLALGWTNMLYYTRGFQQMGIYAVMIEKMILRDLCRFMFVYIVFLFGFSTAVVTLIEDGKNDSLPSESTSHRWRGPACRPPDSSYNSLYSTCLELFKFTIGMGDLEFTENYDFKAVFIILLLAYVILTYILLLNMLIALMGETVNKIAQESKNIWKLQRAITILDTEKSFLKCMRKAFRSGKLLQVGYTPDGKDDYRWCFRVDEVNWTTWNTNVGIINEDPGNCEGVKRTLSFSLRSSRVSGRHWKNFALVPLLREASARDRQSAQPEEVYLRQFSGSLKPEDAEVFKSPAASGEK

[1] = 100 μM antagonist vs 1 mM L-Menthol
[2] = antagonist 100 μM against 1 mM L-Menthol

human TRPA1, sequence (O75762 whole entry): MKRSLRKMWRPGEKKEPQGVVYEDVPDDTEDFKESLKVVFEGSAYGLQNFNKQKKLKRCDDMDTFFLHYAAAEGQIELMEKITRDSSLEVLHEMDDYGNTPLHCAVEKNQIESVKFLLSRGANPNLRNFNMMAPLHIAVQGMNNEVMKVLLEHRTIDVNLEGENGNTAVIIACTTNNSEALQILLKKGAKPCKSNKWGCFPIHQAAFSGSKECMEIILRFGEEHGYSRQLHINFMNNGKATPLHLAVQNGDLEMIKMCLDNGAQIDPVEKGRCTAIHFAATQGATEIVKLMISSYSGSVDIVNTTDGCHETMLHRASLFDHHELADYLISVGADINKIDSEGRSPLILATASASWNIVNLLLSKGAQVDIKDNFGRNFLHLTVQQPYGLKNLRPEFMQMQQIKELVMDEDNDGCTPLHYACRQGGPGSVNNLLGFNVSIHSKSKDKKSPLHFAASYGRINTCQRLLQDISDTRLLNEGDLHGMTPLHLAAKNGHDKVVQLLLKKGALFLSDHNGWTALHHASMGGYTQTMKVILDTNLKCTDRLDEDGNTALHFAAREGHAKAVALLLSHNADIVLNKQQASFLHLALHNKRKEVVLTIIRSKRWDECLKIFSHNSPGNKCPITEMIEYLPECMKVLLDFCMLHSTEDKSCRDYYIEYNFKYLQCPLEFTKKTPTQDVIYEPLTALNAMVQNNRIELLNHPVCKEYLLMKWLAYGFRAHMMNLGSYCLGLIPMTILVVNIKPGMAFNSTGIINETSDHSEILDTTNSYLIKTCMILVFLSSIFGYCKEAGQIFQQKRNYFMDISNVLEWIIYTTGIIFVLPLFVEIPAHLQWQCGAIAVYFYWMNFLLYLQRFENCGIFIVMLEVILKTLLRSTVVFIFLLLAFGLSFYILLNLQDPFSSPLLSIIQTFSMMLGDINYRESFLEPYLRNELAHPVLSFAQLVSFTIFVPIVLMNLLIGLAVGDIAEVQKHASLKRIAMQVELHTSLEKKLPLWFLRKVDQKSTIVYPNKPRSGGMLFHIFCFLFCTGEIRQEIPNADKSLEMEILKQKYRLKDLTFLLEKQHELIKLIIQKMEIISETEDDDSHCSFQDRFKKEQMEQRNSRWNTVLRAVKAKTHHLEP

SMILES	Block of L-Menthol activation of TRPA1 (human TRPA1; [1])	Average Ca2+ Counts (human TRPV1; [2]) [Counts]	inhibition at 100 µM (human TRPV1) [%]	Block of L-Menthol activation of TRPA1 (human TRPA1)	% Reduction of L-Menthol TRPV1 Activation (human TRPV1) [%]	Average Ca2+ Counts (human TRPV1) [Counts]	% Reduction of L-Menthol TRPV1 Activation (human TRPV1; [2]) [%]
CCOC(=O)CC [ethyl propionate]	BLOCK ONLY MENTHOL/TRPA1	2712.0	32.8				
C[N+](C)(C)CCO.O=C([O-])C(O)C(O)C(=O)O (stereo not drawn) [choline bitartrate]				BLOCK ONLY MENTHOL/TRPA1	39.1	1141.3	
CC1(C)C2CC[C@@]1(C)C(=O)C2 [(1r)-(+)-camphor]	BLOCK ONLY MENTHOL/TRPA1	2807.0	30.5				
COc1ccccc1C=O [2-methoxybenzaldehyde]	BLOCK ONLY MENTHOL/TRPA1	1050.3	43.3				
COC(=O)c1ccccc1NC(C)=O [methyl 2-(acetylamino)benzoate]	BLOCK ONLY MENTHOL/TRPA1	1178.3	37.4				
O=C(O)CN(CCN(CC(=O)O)CC(=O)O)CC(=O)O [edta]				BLOCK ONLY MENTHOL/TRPA1	34.8	1236.0	
C=C[C@H]1C[N@@]2CC[C@H]1C[C@H]2[C@H](O)c1ccnc2ccc(OC)cc12 [quinine hydrochloride dihydrate]	BLOCK ONLY MENTHOL/TRPA1	1505.3	22.3				
Cc1nc(C)c(C)nc1C [2,3,5,6-tetramethylpyrazine]	BLOCK ONLY MENTHOL/TRPA1	972.0	47				
C/C=C(\C)C(=O)OC(C)C [isopropyl tiglate]	BLOCK ONLY MENTHOL/TRPA1	4497.5	29.7				
CC1OCCC1=O (stereo not drawn) [2-methyltetrahydro-3-furanone]	BLOCK ONLY MENTHOL/TRPA1	993.7	46				
COc1cc(C)cc(OC)c1O [4-methyl-2,6-dimethoxyphenol]	BLOCK ONLY MENTHOL/TRPA1	1292.3	32.1				
C=C1CC/C=C(\C)CC[C@@H]2[C@@H]1CC2(C)C [beta-caryophyllene]	BLOCK ONLY MENTHOL/TRPA1	2744.5					32.0
O=C(O)c1ccc(O)cc1O [beta-resorcylic acid]	BLOCK ONLY MENTHOL/TRPA1	1317.3	31				
CCCC(C)C(=O)OC (stereo not drawn) [methyl 2-methylpentanoate]	BLOCK ONLY MENTHOL/TRPA1	1529.3	21.2				
CC(=O)c1ccccc1O [2′-hydroxyacetophenone]	BLOCK ONLY MENTHOL/TRPA1	1083.3	41.8				
CCCCCC(=O)OCC(C)C [isobutyl hexanoate]	BLOCK ONLY MENTHOL/TRPA1	3443.5	25.8				
CCCCC/C=C/CCC(=O)OCC [ethyl trans-4-decenoate]	BLOCK ONLY MENTHOL/TRPA1	1454.3	24.6				
CC(C)=CCCC(C)CCOC=O (stereo not drawn) [citronellyl formate]	BLOCK ONLY MENTHOL/TRPA1	1097.0	41.2				
O=C(O)c1ccc(O)c(O)c1 [3,4-dihydroxybenzoic acid]	BLOCK ONLY MENTHOL/TRPA1	1539.7	20.7				
C=CCSCC=C [diallyl sulfide]	BLOCK ONLY MENTHOL/TRPA1	1293.3	32.1				
CCOC(=O)CCc1ccco1 [ethyl 3-(2-furyl)propionate]	BLOCK ONLY MENTHOL/TRPA1	4446.5	30.5				
CC(=O)OCC1CCCO1 (stereo not drawn) [tetrahydrofurfuryl acetate]	BLOCK ONLY MENTHOL/TRPA1	1269.3	33.2				
CCCCCCCCSC [methyl n-octyl sulfide]	BLOCK ONLY MENTHOL/TRPA1	1120.3	40.1				
COC(=O)CCSC [methyl 3-(methylthio)propionate]	BLOCK ONLY MENTHOL/TRPA1	998.7	45.7				
